As usually defined, the EC50 is the concentration needed to bring the measured effect to its halfway point.

The test system of one assay is HBV rcDNA in HepDE19 cells. Put plainly: HepDE19 assay with bDNA quantitation of HBV rcDNA. The class given is cell-based, hepatitis B virus (HBV). The note with it: HepDE19 cells, 7 day incubation, rcDNA by Quantigene 2.0 bDNA assay; read-out: DE-19 bDNA EC50. The procedure: HepDE19 Assay with bDNA Quantitation of HBV rcDNA:
HepDE19 cell culture system is a HepG2 (human hepatocarcinoma) derived cell line that supports HBV DNA replication and cccDNA formation in a tetracycline (Tet)-regulated manner and produces HBV rcDNA and a detectable reporter molecule dependent on the production and maintenance of cccDNA (Guo, et al., 2007, J. Virol. 81:12472-12484).
HepDE19 (50,000 cells/well) were plated in 96 well collagen-coated tissue-culture treated microtiter plates in DMEM/F12 medium supplemented with 10% fetal bovine serum, 1% penicillin-streptomycin and 1 μg/mL tetracycline and incubated in a humidified incubator at 37° C. and 5% CO2 overnight. Next day, the cells were switched to fresh medium without tetracycline and incubated for 4 hours at 37° C. and 5% CO2. The cells were treated with fresh Tet-free medium with compounds at concentrations starting at 25 μM and a serial, ½ log, 8-point, titration series in duplicate. The final DMSO concentration in the assay was 0.5%. The plates were incubated for 7 days in a humidified incubator at 37° C. and 5% CO2. Following a 7 day-incubation, the level of rcDNA present in the inhibitor-treated wells was measured using a Quantigene 2.0 bDNA assay kit (Affymetrix, Santa Clara, Calif.) with HBV specific custom probe set and manufacturers instructions. Concurrently, the effect of compounds on cell viability was assessed using replicate plates, plated at a density of 5,000 cells/well and incubated for 4 days, to determine the ATP content as a measure of cell viability using the cell-titer glo reagent (CTG; Promega Corporation, Madison, Wis.) as per manufacturer's instructions. The plates were read using a Victor luminescence plate reader (PerkinElmer Model 1420 Multilabel counter) and the relative luminescence units (RLU) data generated from each well was calculated as % inhibition of the untreated control wells and analyzed using XL-Fit module in Microsoft Excel to determine EC50 and EC90 (bDNA) and CC50 (CTG) values using a 4-parameter curve fitting algorithm.
Representative compounds of the invention were tested for their ability to inhibit formation of relaxed circular DNA (rcDNA) in a HepDE19 assay, as described elsewhere herein.
Consider `O=C(N[C@H]1CCOc2c(C(=O)Nc3ccc(F)c(F)c3)cccc21)OCC1CCCCN1` (single isomer, unassigned) [Compound 86], for which the EC50 was 15000 nM.

`CN1CCCC(COC(=O)N[C@H]2CCOc3c(C(=O)Nc4ccc(F)c(F)c4)cccc32)C1` (single isomer, unassigned) [Compound 99]: the EC50 amounted to 25000 nM.

Staying with this assay, now noted: Hepatitis B virus, HepDE19, 168 h, HepDE19 cells, 7 day incubation, rcDNA by Quantigene 2.0 bDNA assay; read-out: DE-19 bDNA EC50.
Turning to `O=C(N[C@H]1CCOc2c(C(=O)Nc3ccc(F)c(F)c3)cccc21)OCC1CCCNC1` (single isomer, unassigned) [Compound 87], the EC50 turned out to be 16000 nM.

For `O=C(N[C@H]1CCOc2c(C(=O)Nc3ccc(F)c(Cl)c3)ccc(F)c21)OCCN1CCCC1=O` [Compound 159, 2-(2-Oxopyrrolidin-1-yl)ethyl (S)-(5-fluoro-8-((3-chloro-4-fluorophenyl)carbamoyl)chroman-4-yl)carbamate], the EC50 came out at 410 nM.

For `O=C1CCOc2c1ccc(Cl)c2C(=O)Nc1ccc(F)c(F)c1` [Compound 77, 7-chloro-N-(3,4-difluorophenyl)-4-oxochromane-8-carboxamide], the EC50 amounted to 23000 nM.

With `Cc1cc(NC(=O)c2ccc(F)c3c2OCC[C@@H]3NC(=O)OCc2ccncn2)ccc1F` [Compound 130, Pyrimidin-4-ylmethyl (S)-(5-fluoro-8-((4-fluoro-3-methylphenyl)carbamoyl)chroman-4-yl)carbamate], the EC50 was 620 nM.

Consider `O=C(N[C@H]1CCOc2c(C(=O)Nc3ccc(F)c(F)c3)ccc(F)c21)OCc1ccccn1` [Compound 93, Pyridin-2-ylmethyl (S)-(8-((3,4-difluorophenyl)carbamoyl)-5-fluorochroman-4-yl)carbamate], for which the 50% effective concentration (EC50) was 850 nM.

For `O=C(N[C@@H]1CCOc2c(C(=O)Nc3ccc(F)c(F)c3)cccc21)OCc1ccccn1` [Compound 28, pyridin-2-ylmethyl (R)-(8-((3,4-difluorophenyl)carbamoyl)chroman-4-yl)carbamate], the EC50 stood at 15000 nM.

Consider `O=C(N[C@H]1CCSc2c(C(=O)Nc3ccc(F)c(Cl)c3)ccc(F)c21)OCc1ccccn1` [Compound 172], for which the EC50 is 2900 nM.

On to `O=C(N[C@H]1CCOc2c(C(=O)Nc3ccc(F)c(F)c3)cccc21)OCc1ccon1` [Compound 103, Isoxazol-3-ylmethyl (S)-(8-((3,4-difluorophenyl)carbamoyl)chroman-4-yl)carbamate], for which the EC50 is 2100 nM.

In the case of `COC(=O)N[C@H]1CCOc2c(C(=O)Nc3cccc(C#N)c3)cccc21` [Compound 43, Methyl (S)-(8-((3-cyanophenyl)carbamoyl)chroman-4-yl)carbamate], the concentration for a half-maximal effect (EC50) turned out to be 8700 nM.

For `Cc1cc(NC(=O)c2ccc(F)c3c2OCC[C@@H]3NC(=O)CCc2ccccn2)ccc1F` [Compound 151, (S)-5-Fluoro-N-(4-fluoro-3-methylphenyl)-4-(3-(pyridin-2-yl)propanamido)chromane-8-carboxamide], the EC50 came to 560 nM.

For the molecule `O=C(N[C@H]1CCOc2c(C(=O)Nc3ccc(F)c(Cl)c3)ccc(F)c21)OCc1ccccn1` [Compound 105, Pyridin-2-ylmethyl (S)-(8-((3-chloro-4-fluorophenyl)carbamoyl)-5-fluorochroman-4-yl)carbamate], the EC50 is 370 nM.

Consider `O=C(Nc1ccc(F)c(F)c1)c1cccc2c1OCCC2c1cccnc1` (centres unmarked) [Compound 63, N-(3,4-difluorophenyl)-4-(pyridin-3-yl)chromane-8-carboxamide], for which the EC50 was 14000 nM.

Regarding `O=C(Nc1ccc(F)c(F)c1)c1cccc2c1OCCC2c1ccccc1` (centres unmarked) [Compound 62, N-(3,4-difluorophenyl)-4-phenylchromane-8-carboxamide], the EC50 came to 4900 nM.

Turning to `O=C(N[C@H]1CCOc2c(C(=O)Nc3ccc(F)c(F)c3)cccc21)OCc1ccncc1` [Compound 29, Pyridin-4-ylmethyl-(8-((3,4-difluorophenyl)carbamoyl)chroman-4-yl)carbamate], the EC50 was 2200 nM.

`COC(=O)N[C@H]1CCOc2c(C(=O)Nc3ccnc(C)c3)ccc(F)c21` [Compound 135, methyl (S)-(5-fluoro-8-((2-methylpyridin-4-yl)carbamoyl)chroman-4-yl)carbamate]: the EC50 came to 9700 nM.

Take `COC(=O)N[C@H]1CCSc2c(C(=O)Nc3ccc(F)c(F)c3)ccc(F)c21` [Compound 171, Methyl (S)-(8-((3,4-difluorophenyl)carbamoyl)-5-fluorothiochroman-4-yl)carbamate]: the 50% effective concentration (EC50) was 4100 nM.

`COC(=O)N[C@H]1CCOc2c(C(=O)Nc3ccc(F)c(Cl)c3)cccc21` [Compound 32, Methyl (S)-(8-((3-chloro-4-fluorophenyl)carbamoyl)chroman-4-yl)carbamate]: the EC50 was determined as 850 nM.

In the case of `O=C(N[C@H]1CCOc2c(C(=O)Nc3ccc(F)c(Cl)c3)ccc(F)c21)OCCc1ccccn1` [Compound 153, 2-(Pyridin-2-yl)ethyl (S)-(8-((3-chloro-4-fluorophenyl)carbamoyl)-5-fluorochroman-4-yl)carbamate], the EC50 was 530 nM.

As to `O=C(Nc1ccc(F)c(F)c1)c1cccc2c1OCCC2c1ncccn1` (centres unmarked) [Compound 71, N-(3,4-difluorophenyl)-4-(pyrimidin-2-yl)chromane-8-carboxamide], the EC50 stood at 12000 nM.

`Cc1cc(NC(=O)c2ccc(F)c3c2OCC[C@@H]3NC(=O)OC[C@H]2CCC(=O)N2C)ccc1F` [Compound 168, ((R)-1-Methyl-5-oxopyrrolidin-2-yl)methyl ((S)-5-fluoro-8-((4-fluoro-3-methylphenyl)carbamoyl)chroman-4-yl)carbamate]: the EC50 amounted to 1600 nM.

Turning to `Cc1cc(NC(=O)c2ccc(F)c3c2OCC[C@@H]3NC(=O)OC[C@@H]2CCC(=O)N2)ccc1F` [Compound 137, ((S)-5-Oxopyrrolidin-2-yl)methyl ((S)-5-fluoro-8-((4-fluoro-3-methylphenyl)carbamoyl)chroman-4-yl)carbamate], the EC50 came to 900 nM.

The assay is the same for the next values; noted with them: Hepatitis B virus, HepDE19, 168 h, read-out: DE-19 bDNA EC50, HepDE19 cells, 7 day incubation, rcDNA by Quantigene 2.0 bDNA assay.
As to `O=C(N[C@H]1CCCc2c(C(=O)Nc3ccc(F)c(F)c3)cccc21)OCc1ccccn1` [Compound 186, Pyridin-2-ylmethyl (S)-(5-((3,4-difluorophenyl)carbamoyl)-1,2,3,4-tetrahydronaphthalen-1-yl)carbamate], the EC50 is 5600 nM.

As for `COC(=O)N[C@H]1CCOc2c(C(=O)Nc3ccc(F)c(F)c3)c(F)cc(F)c21` [Compound 115, Methyl (S)-(8-((3,4-difluorophenyl)carbamoyl)-5,7-difluorochroman-4-yl)carbamate], the EC50 amounted to 800 nM.

`CNC(=O)N[C@H]1CCOc2c1ccc(F)c2C(=O)Nc1ccc(F)c(Cl)c1` [Compound 75, (S)—N-(3-Chloro-4-fluorophenyl)-7-fluoro-4-(3-methylureido)chromane-8-carboxamide]: the 50% effective concentration (EC50) is 3200 nM.

With `COC(=O)N[C@H]1CCOc2c(C(=O)Nc3ccc(F)c(F)c3)cccc21` [Compound 8, methyl (S)-(8-((3,4-difluorophenyl)carbamoyl)chroman-4-yl)carbamate], the EC50 amounted to 2300 nM.

On to `CNC(=O)N1CCC(COC(=O)N[C@H]2CCOc3c(C(=O)Nc4ccc(F)c(Cl)c4)ccc(F)c32)CC1` [Compound 165, (1-(Methylcarbamoyl)piperidin-4-yl)methyl (S)-(8-((3-chloro-4-fluorophenyl)carbamoyl)-5-fluorochroman-4-yl)carbamate], for which the EC50 stood at 350 nM.

For the molecule `CNC(=O)N[C@H]1CCOc2c1ccc(Cl)c2C(=O)Nc1ccc(F)c(F)c1` [Compound 84, (S)-7-Chloro-N-(3,4-difluorophenyl)-4-(3-methylureido)chromane-8-carboxamide], the half-maximal effective concentration (EC50) is 11000 nM.
